Assays:
Plasma Kallikrein = target: T1, Plasma Kallikrein (Homo sapiens, UniProt P03952); test: Related protease inhibition: Plasma Kallikrein (fluorogenic substrate at Km); assay type: biochemical; conditions: class symbols per Table 18, read-out: IC50 (human PKal)
T1 construct: FXIIa converts plasma prekallikrein (PK) to plasma kallikrein (PKa)
Procedure: In vitro inhibition of related proteases was determined using an IC50 assay based on standard literature methods (see e.g. Shori et al., Biochem. Pharmacol., 1992, 43, 1209; Bouckaert et al., European Journal of Medicinal Chemistry 110 (2016) 181). Human serine protease enzyme Plasma Kallikrein, KLK1, FXa, Plasmin, Thrombin and Trypsin were assayed for enzymatic activity using an appropriate fluorogenic substrate at Km concentration, FXIa at fixed substrate concentration of 100 μM and various concentrations of the test compound. Protease activity was measured by monitoring the accumulation of liberated fluorescence from the substrate over 5 min at 25° C. The linear rate of fluorescence increase per minute was expressed as percentage (%) activity. IC50 values were calculated as the concentration of inhibitor giving 50% inhibition of the uninhibited enzyme activity (100%).

Human Factor XIIa = target: T2, Human Factor XIIa (Homo sapiens, UniProt P00748); test: Determination of FXIIa inhibition (fluorogenic substrate H-DPro-Phe-Arg-AFC, IC50 assay); assay type: biochemical; conditions: substrate at Km concentration, 25° C.; category scale; read-out: Human FXII IC50 (nm)
T2 construct: Proteolytic cleavage of FXII to heavy and light chains of FXIIa dramatically increases catalytic activity; purchased Enzyme Research Laboratories
T2 sequence (P00748 373-615 limits assumed): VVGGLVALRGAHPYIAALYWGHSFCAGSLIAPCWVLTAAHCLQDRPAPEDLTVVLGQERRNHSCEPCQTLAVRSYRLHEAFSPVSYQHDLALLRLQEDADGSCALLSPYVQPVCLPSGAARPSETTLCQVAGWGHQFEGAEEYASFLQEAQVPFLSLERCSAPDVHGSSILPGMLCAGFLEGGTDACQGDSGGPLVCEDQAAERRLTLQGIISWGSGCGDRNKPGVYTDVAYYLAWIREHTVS
T2 sequence (P00748 20-372 partner limits assumed): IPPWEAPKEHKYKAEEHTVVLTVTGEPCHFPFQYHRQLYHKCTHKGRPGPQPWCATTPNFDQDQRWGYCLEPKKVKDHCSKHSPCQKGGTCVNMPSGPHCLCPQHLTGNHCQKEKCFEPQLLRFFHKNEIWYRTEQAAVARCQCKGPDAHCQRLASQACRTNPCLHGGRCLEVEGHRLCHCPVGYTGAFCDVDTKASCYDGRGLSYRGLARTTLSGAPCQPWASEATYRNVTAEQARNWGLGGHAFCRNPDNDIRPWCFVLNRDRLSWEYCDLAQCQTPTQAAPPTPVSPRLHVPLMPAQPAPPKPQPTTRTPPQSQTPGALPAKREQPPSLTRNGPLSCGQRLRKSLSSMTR
Outline: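 Human FXIIa incubated at 25° C. with fluorogenic H-DPro-Phe-Arg-AFC at its Km concentration plus varying compound levels. Linear fluorescence increase over 5 min taken as % activity; IC50 is concentration halving uninhibited activity.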

T1 sequence (P03952 391-638 limits assumed): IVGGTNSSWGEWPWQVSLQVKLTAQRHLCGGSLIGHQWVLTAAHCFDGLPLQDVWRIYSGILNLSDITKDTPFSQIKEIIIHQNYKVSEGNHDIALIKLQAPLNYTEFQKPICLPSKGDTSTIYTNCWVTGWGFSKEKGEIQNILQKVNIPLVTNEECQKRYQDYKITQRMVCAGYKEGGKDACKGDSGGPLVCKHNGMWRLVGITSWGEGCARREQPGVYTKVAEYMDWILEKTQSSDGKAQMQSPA
T1 sequence (P03952 20-390 partner limits assumed): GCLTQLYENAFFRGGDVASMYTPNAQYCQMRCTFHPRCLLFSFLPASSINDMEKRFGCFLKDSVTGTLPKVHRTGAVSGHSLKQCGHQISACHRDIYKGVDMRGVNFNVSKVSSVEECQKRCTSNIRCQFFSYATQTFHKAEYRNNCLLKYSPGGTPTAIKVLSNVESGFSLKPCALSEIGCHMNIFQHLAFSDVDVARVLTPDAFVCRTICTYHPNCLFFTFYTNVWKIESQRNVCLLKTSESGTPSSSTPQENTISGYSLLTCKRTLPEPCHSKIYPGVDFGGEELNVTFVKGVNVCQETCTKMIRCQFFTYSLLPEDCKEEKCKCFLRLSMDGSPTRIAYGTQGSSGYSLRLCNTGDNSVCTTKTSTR

Structure (SMILES) | IC50 (Plasma Kallikrein) [µM] | IC50 (Human Factor XIIa) [µM]
Nc1nccc2c(NCC34CC(COC5CCc6nccn6C5)(CO3)C4)cccc12 (stereo not drawn) [Example 6610, N5-((4-(((5,6,7,8-tetrahydroimidazo[1,2-a]pyridin-6-yl)oxy)methyl)-2-oxabicyclo[2.1.1]hexan-1-yl)methyl)isoquinoline-1,5-diamine] | > 40 | 0.3 to 1
Nc1nccc2c(NCC34CC(COc5ncccn5)(CCO3)C4)cccc12 [Example 10912, N5-((5-((pyrimidin-2-yloxy)methyl)-2-oxabicyclo[3.1.1]heptan-1-yl)methyl)isoquinoline-1,5-diamine] | > 40 | 10 to 40
Nc1nccc2c(NCC34CC(COc5cccn6ccnc56)(C3)C4)cccc12 [Example 1018, 5-N-[[3-(Imidazo[1,2-a]pyridin-8-yloxymethyl)-1-bicyclo[1.1.1]pentanyl]methyl]isoquinoline-1,5-diamine] | > 40 | 0.3 to 1
Nc1nccc2c(NCC34CC(COC5CCn6ccnc6C5)(CCO3)C4)cccc12 (stereo not drawn) [Example 10903, N5-((5-(((5,6,7,8-tetrahydroimidazo[1,2-a]pyridin-7-yl)oxy)methyl)-2-oxabicyclo[3.1.1]heptan-1-yl)methyl)isoquinoline-1,5-diamine] | > 4 | 0.3 to 1
Nc1nccc2c(NCC34CC(COc5ccc6cn[nH]c6c5)(C3)C4)cccc12 [Example 1125, N5-((3-(((1H-indazol-6-yl)oxy)methyl)bicyclo[1.1.1]pentan-1-yl)methyl)isoquinoline-1,5-diamine] | > 40 | 10 to 40
CC1(C)OC2(COc3cccc4c(N)nccc34)CC1(COc1ccc3nccn3c1)C2 [Example 7704, 5-((4-((imidazo[1,2-a]pyridin-6-yloxy)methyl)-3,3-dimethyl-2-oxabicyclo[2.1.1]hexan-1-yl)methoxy)isoquinolin-1-amine] | > 40 | 0.3 to 1
Nc1nccc2c(N3CC4(CCC4OCc4ccn5ccnc5c4)C3)cccc12 (single isomer, unassigned) [Example 9003, (S*)-5-(5-(imidazo[1,2-a]pyridin-7-ylmethoxy)-2-azaspiro[3.3]heptan-2-yl)isoquinolin-1-amine] | > 40 | 10 to 40
Clc1cc2c(NCC34CC(COc5ccc6nccn6c5)(CCO3)C4)ccnc2[nH]1 [Example 10909, 2-Chloro-N-[[5-(imidazo[1,2-a]pyridin-6-yloxymethyl)-2-oxabicyclo[3.1.1]heptan-1-yl]methyl]-1H-pyrrolo[2,3-b]pyridin-4-amine] | > 40 | 1 to 3
Clc1cc2c(NCC34CC(COC5CCn6ccnc6C5)(C3)C4)ccnc2[nH]1 (stereo not drawn) [Example 1130, 2-Chloro-N-[[3-(5,6,7,8-tetrahydroimidazo[1,2-a]pyridin-7-yloxymethyl)-1-bicyclo[1.1.1]pentanyl]methyl]-1H-pyrrolo[2,3-b]pyridin-4-amine] | > 40 | 0.3 to 1
N#Cc1cnc(OCC23CC(CNc4cccc5c(N)nccc45)(CO2)C3)nc1 [Example 2208, 2-((4-(((1-aminoisoquinolin-5-yl)amino)methyl)-2-oxabicyclo[2.1.1]hexan-1-yl)methoxy)pyrimidine-5-carbonitrile] | > 40 | 3 to 10
Nc1nccc2c(N3CCC4(CC(OCc5ccn6ccnc6c5)C4)C3)cccc12 (stereo not drawn) [Example 8803, 5-(2-(imidazo[1,2-a]pyridin-7-ylmethoxy)-6-azaspiro[3.4]octan-6-yl)isoquinolin-1-amine] | > 40 | 1 to 3
Nc1nccc2c(N3CC4(CC(COc5ccc6nccn6c5)C4)C3)cccc12 [Example 8808, 5-(6-((imidazo[1,2-a]pyridin-6-yloxy)methyl)-2-azaspiro[3.3]heptan-2-yl)isoquinolin-1-amine] | > 40 | 10 to 40
Nc1nccc2c(N3CC4(CCC4OCc4ccn5ccnc5c4)C3)cccc12 (single isomer, unassigned) [Example 9002, (R*)-5-(5-(imidazo[1,2-a]pyridin-7-ylmethoxy)-2-azaspiro[3.3]heptan-2-yl)isoquinolin-1-amine] | > 40 | 10 to 40
Clc1cc2c(NCC34CC(COc5ccn6ccnc6c5)(CO3)C4)ccnc2[nH]1 [Example 6606, 2-chloro-N-((4-((imidazo[1,2-a]pyridin-7-yloxy)methyl)-2-oxabicyclo[2.1.1]hexan-1-yl)methyl)-1H-pyrrolo[2,3-b]pyridin-4-amine] | > 40 | 1 to 3
Nc1nccc2c(N3CC4(CC(OCc5ccn6ccnc6c5)C4)C3)cccc12 [Example 8801, 5-(6-(imidazo[1,2-a]pyridin-7-ylmethoxy)-2-azaspiro[3.3]heptan-2-yl)isoquinolin-1-amine] | > 40 | 10 to 40
Clc1c[nH]c2ncc(NCC34CC(COc5ccn6ccnc6c5)(C3)C4)cc12 [Example 1129, 3-chloro-N-((3-((imidazo[1,2-a]pyridin-7-yloxy)methyl)bicyclo[1.1.1]pentan-1-yl)methyl)-1H-pyrrolo[2,3-b]pyridin-5-amine] | > 100 | –
Nc1nccc2c(N3CC4(CCC4OCc4ccn5ccnc5c4)C3)cccc12 (stereo not drawn) [Example 9001, 5-(5-(imidazo[1,2-a]pyridin-7-ylmethoxy)-2-azaspiro[3.3]heptan-2-yl)isoquinolin-1-amine] | > 40 | 10 to 40
Nc1nccc2c(NCC34COC(COc5ccn6ncnc6c5)(C3)C4)cccc12 [Example 2207, N5-((1-(([1,2,4]triazolo[1,5-a]pyridin-7-yloxy)methyl)-2-oxabicyclo[2.1.1]hexan-4-yl)methyl)isoquinoline-1,5-diamine] | > 40 | 1 to 3
CC1(C)OC2(CNc3cccc4c(N)nccc34)CC1(COc1ccc3nccn3c1)C2 [Example 7703, N5-((4-((imidazo[1,2-a]pyridin-6-yloxy)methyl)-3,3-dimethyl-2-oxabicyclo[2.1.1]hexan-1-yl)methyl)isoquinoline-1,5-diamine] | > 40 | 0.1 to 0.3
Nc1nccc2c(NCC34CC(COC5CCn6ccnc6C5)(C3)C4)cccc12 (single isomer, unassigned) [Example 1002.2, (R*)-N5-((3-(((5,6,7,8-tetrahydroimidazo[1,2-a]pyridin-7-yl)oxy)methyl)bicyclo[1.1.1]pentan-1-yl)methyl)isoquinoline-1,5-diamine] | > 40 | 0.3 to 1
Nc1nccc2c(NCC34CC(Cn5ccn6ccc(=O)cc56)(C3)C4)cccc12 [Example 1127, 1-((3-(((1-aminoisoquinolin-5-yl)amino)methyl)bicyclo[1.1.1]pentan-1-yl)methyl)imidazo[1,2-a]pyridin-7(1H)-one] | > 40 | 3 to 10
Nc1nccc2c(CCC34CC(COc5ccn6ccnc6c5)(C3)C4)cccc12 [Example 1014, 5-[2-[3-(Imidazo[1,2-a]pyridin-7-yloxymethyl)-1-bicyclo[1.1.1]pentanyl]ethyl]isoquinolin-1-amine] | > 40 | 1 to 3
Nc1nccc2c(NCC34CC(COc5ccc6nnc(C(F)F)n6n5)(CCO3)C4)cccc12 [Example 10910, N5-((5-(((3-(difluoromethyl)-[1,2,4]triazolo[4,3-b]pyridazin-6-yl)oxy)methyl)-2-oxabicyclo[3.1.1]heptan-1-yl)methyl)isoquinoline-1,5-diamine] | > 40 | 0.1 to 0.3
Nc1nccc2c(N3CCC4(CC(OCc5ccn6ccnc6c5)C4)C3)cccc12 (stereo not drawn) [Example 8804, 5-(cis*-2-(imidazo[1,2-a]pyridin-7-ylmethoxy)-6-azaspiro[3.4]octan-6-yl)isoquinolin-1-amine] | > 40 | 1 to 3
Nc1nccc2c(NCC34CC(COc5ccc6nccn6n5)(CO3)C4)cccc12 [Example 6612, N5-((4-((imidazo[1,2-b]pyridazin-6-yloxy)methyl)-2-oxabicyclo[2.1.1]hexan-1-yl)methyl)isoquinoline-1,5-diamine] | > 40 | 1 to 3
Nc1nccc2c(NCC34CC(COc5ccccn5)(CCO3)C4)cccc12 [Example 10914, N5-((5-((pyridin-2-yloxy)methyl)-2-oxabicyclo[3.1.1]heptan-1-yl)methyl)isoquinoline-1,5-diamine] | > 40 | 3 to 10

Reference: patent US20240327412A1, “FACTOR XIIA INHIBITORS” (KALVISTA PHARMACEUTICALS LIMITED, priority 2021, published 2024)
